In one experiment the target is T1, Raf-1 (c-Raf) (Homo sapiens, UniProt P04049).
T1 construct: Sf9 insect cell lysate containing full length 6his-tagged recombinant human c-Raf; host or cells: c-Raf: Sf9 insect cell lysate; MEK1 and MAPK: E. coli
Briefly: Raf1 kinase cascade assay procedure. In kind it is biochemical. As for the experimental part: (Specific Activity: ~200U/ml). Human Non-active Mek-1-GST and human GST-MAP kinase (recombinant proteins produced in E. coli).
• 1. Assay Dilution Buffer (ADB): 20mM MOPS, pH 7.2, 25mM β-glycerol phosphate, 5mM EGTA, 1mM sodium orthovanadate, 1mM dithiothreitol. • 2. Magnesium/ATP Cocktail: 500µM cold ATP and 75 mM magnesium chloride in ADB. • 4. Active Kinase: Human Active c-Raf: Use at 0.4U per assay point • 5. Non-active GST-MEK1: Use at 0.1µg per assay point. • 6. Non-active GST-p42 MAP Kinase: Use at 1.0 µg per assay point
• 1. TBST - Tris (50 mM, pH 7.5), NaCl (150 mM), Tween-20 (0.05 %) • 2. Superblock (Pierce) • 3. Anti-GST Ab (Pharmacia) • 4. Anti-Phospho MAPK (Sigma) • 5. Anti-Mouse Ab / Europium conjugate (Wallac)
First Stage: c-Raf Dependent Activation of GST-MEK and GST-MAPK • 1. Add […] of ADB per assay (i.e. per well of a 96 well plate) • 2. Add 10 ml of 0.5 mM cold ATP and 75 mM magnesium chloride in ADB. • 3. Add 2 ml of c-Raf (0.4U/assay), in conjunction with 1.6ml non-active MEK1 ([…]). • 4. Add 4 ml of non-active GST-p42 MAP Kinase (1.0 mg/assay). • 5. Incubate for 60 minutes at 30°C in a shaking incubator. • 6. Transfer this mixture to an anti-GST Ab coated 96 well plate (Nunc Immunosorb plates coated o/n with a-GST, then blocked with Pierce Superblock). • 7. Incubate for 60 minutes at 30°C in a shaking incubator Wash 3X with TBST, add Anti-Phospho MAPK (Sigma) (1:3000) • 6. Incubate for 60 minutes at 30°C in a shaking incubator • 7. Wash 3X with TBST, add Anti-Mouse Ab / Europium conjugate (Wallac) (1:500) • 8. Incubate for 60 minutes at 30°C in a shaking incubator • 9. Wash 3X with TBST, Read plates in Wallac Victor model Plate Reader. • 10. Collect data analyze in Excel for single point and IC50 determinations.
Typically Raf-1 assay is run at compound concentrations from 10 µM to 1 nM in half log dilutions. (% inhibition is determined for each compound concentration).

Experiment [1] has as its system Human adenocarcinoma cell line LoVo. As to the kind of experiment: Cell based screen for inhibitors of Raf kinase, quantitative assay. The following applies: 96 h, four days incubation. The procedure:
(§1) • Cell Lines: Human adenocarcinoma cell line LoVo which is known to be growth inhibited by low nM concentrations of a reference standard inhibitor of Ras and human adenocarcinoma cell line CaCo-2, which is known to be growth resistant to the same reference compound. • Cell Media : RPMI 1640 with 10% Fetal Bovine Serum supplemented with L-glutamine and Pennicilin/Streptomycin. • Compounds: Supplied usually as a 10 mM stock in 100% DMSO. • Normal Saline: 150 mM NaCl • Trichloroacetic Acid (TCA): 50% (w/v) in water • Sulforhodamine B (SRB): 0.4% (w/v) in 1% Acetic Acid • Tris Base: 10 mM in water
(§2) Cells are plated at 2000 cells per well for cell line LoVo and 1500 cells for cell line CaCo-2 in 96 well plates. Cells are plated in media (200 µl) and allowed to adhere overnight at 37°C. At 24 hours post plating, compounds are added directly at a volume of 0.5 µl. For the qualitative screen (compounds screened at 25 µM) compound is added directly to cells. For the quantitative screen, compound is first diluted in DMSO to generate concentrations of compound or reference standard of: 1, 5, 10 and 25 µM. It is advisable to make the dilutions in an identical 96 well plate so that compounds can be added using a multichannel micropipettor set at 0.5 µl. The cells are then incubated for four days after which the media is removed using a 12 well manifold by first tipping the plate forward at a 45 degree angle and then inserting the manifold in an upright orientation to prevent the tips of the manifold from disturbing cells at the bottom of the plate. 200 µl of normal saline is then added to each well using an 8 well multichannel pipettor, followed by the careful addition of 50 µl of 50% TCA. The plates are then incubated for 2 hours at 4°C, after which the supernatant is removed using the same technique as above and the plated washed twice with 200 µl water. The plates are then air dried and 50 µl of SRB stock solution is carefully added so that the entire bottom of each well is covered. This again can be used using an 8 well multichannel pipettor. The SRB is incubated with fixed cells for 15 minutes at room temperature after which the SRB is removed with the manifold as described above and the plates washed twice with 350 µl of 1% acetic acid per well each time. The plates are then air dried after which the bound SRB is released from protein by the addition of 200 µl of Tris base. Resolubilizing the SRB is aided by placing the plates on a rotator for 15-30 minutes. The absorbance of each well is determined at 550 or 562 nm using a microtiter plate reader.
(§3) Each compound or dilution thereof is performed in triplicate. Outliers are identified by visual inspection of the data. Each plate should have a "0" control (vehicle only).
(§4) Quantitative Assay: A standard curve is constructed by plotting the concentration of compound against the average absorbance calculated at that concentration. […] Multiple entries for a given compound indicate that it is tested multiple times.

The subject of experiment [2] is human adenocarcinoma cell line CaCo-2. The description is as above. The following applies: Caco-2, 96 h, four days incubation. The procedure:
as §1, §2, §3, §4

The test system of the next experiment is BxPC3. Described as above. The following applies: Homo sapiens, BXPC-3.
The subject of another experiment is LnCAP. The experiment is described as above. The following applies: Homo sapiens.
In the next experiment the test system is HT-29 cells. As to the kind of experiment: Cell proliferation test procedure, HT-29 cells (MTS). In kind it is cell-based. The conditions noted are these: Homo sapiens, read-out: HT-29 prolif %Inh. The procedure:
HT-29 cells: Compound effectiveness at inhibiting cell proliferation on plastic is performed in a 96-well format by plating 5000 cells per well in appropriate medium on day one, followed by compound addition on day 2 in serial two-fold dilutions. On day five, compound is washed away and medium containing MTS reagent (Promega) is added. Relative cell number is determined by reading the absorbance at 490nm of a dye produced by an NAD-dependent cellular enzymatic reaction.

Experiment [3] concerns Rat2 fibroblasts stably transformed with v-Src/Hu c-Src fusion gene. As to the kind of experiment: Anchorage independent Src-transformed fibroblast proliferation test procedure. It counts as cell-based. The following applies: Rattus norvegicus, read-out: Src TF prolif %Inh. An excerpt: Anchorage Independent Src-transformed Fibroblast Proliferation Test Procedure: Rat2 fibroblasts stably transformed with a plasmid containing a CMV promotor controlled v-Src/Hu c-Src fusion gene in which the catalytic domain of human c-Src is inserted in place of the v-Src catalytic domain in the v-Src gene are used for the measurement of src dependent suspension growth.

A word on the IC50: it is the concentration that inhibits the measured activity by half. Read a high IC50 as a need for much substance.

T1 sequence (P04049 whole entry): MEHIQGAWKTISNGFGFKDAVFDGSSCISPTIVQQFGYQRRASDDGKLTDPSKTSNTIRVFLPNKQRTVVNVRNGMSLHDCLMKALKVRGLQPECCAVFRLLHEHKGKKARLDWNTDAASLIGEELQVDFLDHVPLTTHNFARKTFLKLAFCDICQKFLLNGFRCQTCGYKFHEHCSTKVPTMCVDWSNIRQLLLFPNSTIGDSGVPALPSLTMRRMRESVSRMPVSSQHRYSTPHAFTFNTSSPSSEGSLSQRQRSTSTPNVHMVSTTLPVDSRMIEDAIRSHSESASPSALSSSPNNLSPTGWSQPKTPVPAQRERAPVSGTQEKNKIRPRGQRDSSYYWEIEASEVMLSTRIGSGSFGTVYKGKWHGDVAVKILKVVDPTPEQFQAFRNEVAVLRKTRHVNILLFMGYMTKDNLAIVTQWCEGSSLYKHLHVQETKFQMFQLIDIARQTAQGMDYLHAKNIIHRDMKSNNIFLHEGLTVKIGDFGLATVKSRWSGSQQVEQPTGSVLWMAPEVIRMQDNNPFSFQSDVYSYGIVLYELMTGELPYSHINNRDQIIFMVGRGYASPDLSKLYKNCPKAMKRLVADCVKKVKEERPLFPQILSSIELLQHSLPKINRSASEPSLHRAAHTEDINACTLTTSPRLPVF

Take `COc1cc2cc3c(Nc4ccc(Sc5nccn5C)c(Cl)c4)c(C#N)cnc3cc2cc1OCCn1nccn1` [Example 153, 4-[3-chloro-4-(1-methyl-1H-imidazol-2-ylsulfanyl)phenylamino]-7-methoxy-8-(2-[1,2,3]triazol-2-yl-ethoxy)benzo[g]quinoline-3-carbonitrile]: the IC50 at Raf-1 (c-Raf) was 0.012 µM; in experiment [1], 0.0094 µM; in experiment [2] it was greater than 1 µM; in the experiment on BxPC3, 0.038 µM; in the experiment on LnCAP it was 0.019 µM.
`COc1cc(Nc2c(C#N)cnc3c2C=C2N=CN=C2C3)c(Br)cc1Cl` [Example 39, 8-(2-Bromo-4-chloro-5-methoxyphenylamino)imidazo[4,5-g]quinoline-7-carbonitrile]: the inhibition at 10 µM with HT-29 cells was 35%; in experiment [3], 25%. The compound further registered an IC50 on Raf-1 (c-Raf) of 0.9 µM.
In the case of `N#Cc1cnc2c(c1Nc1ccc(Cl)cc1Br)C=C1N=CN=C1C2` [Example 38, 8-(2-Bromo-4-chlorophenylamino)imidazo[4,5-g]quinoline-7-carbonitrile], the results for the inhibition at 10 µM (with HT-29 cells; in experiment [3]) were 25% and 0%, respectively.
As for `COc1cc2cc3c(Nc4ccc(Sc5nccn5C)c(Cl)c4)c(C#N)cnc3cc2cc1OCCN1CCOCC1` [Example 149, 4-[3-Chloro-4-(1-methyl-1H-imidazol-2-ylsulfanyl)phenylamino]-7-methoxy-8-(2-morpholin-4-yl-ethoxy)benzo[g]quinoline-3-carbonitrile], the IC50 on Raf-1 (c-Raf) stood at 0.004 µM; in experiment [1], 0.006 µM; in experiment [2] it was 0.9 µM; with BxPC3 it was 0.037 µM; in the experiment with LnCAP, 0.053 µM.
Consider `COc1cc2cc3c(Nc4ccc(Sc5nccn5C)c(Cl)c4)c(C#N)cnc3cc2cc1OCCn1ccnn1` [Example 154, 4-[3-Chloro-4-(1-methyl-1H-imidazol-2-ylsulfanyl)phenylamino]-7-methoxy-8-(2-[1,2,3]triazol-1-yl-ethoxy)benzo[g]quinoline-3-carbonitrile], for which the IC50 on Raf-1 (c-Raf) is 0.008 µM; in experiment [1] it was 0.043 µM; in experiment [2] it was greater than 1 µM; in the experiment with BxPC3 it was 0.04 µM.
In the case of `COc1ccc(Cl)c(Nc2c(C#N)cnc3c2C=C2N=CN=C2C3)c1` [Example 40, 8-(2-Chloro-5-methoxy-phenylamino)imidazo[4,5-g]quinoline-7-carbonitrile], the inhibition at 10 µM in the experiment on HT-29 cells amounted to 10%; in experiment [3], 0%. This compound also displayed an IC50 on Raf-1 (c-Raf) of 0.7 µM.
In the case of `COc1cc2cc3c(Nc4ccc(Sc5nccn5C)c(Cl)c4)c(C#N)cnc3cc2cc1OCCN1CCN(C)CC1` [Example 152], the IC50 was 0.008 µM against Raf-1 (c-Raf); 0.029 µM in experiment [1]; greater than 1 µM in experiment [2]; 0.04 µM in the experiment on BxPC3; 0.032 µM in the experiment with LnCAP.
Regarding `COc1cc(Nc2c(C#N)cnc3c2C=C2N=CN=C2C3)cc(OC)c1OC` [Example 42, 8-(3,4,5-Trimethoxyanilino)imidazo[4,5-g]quinoline-7-carbonitrile], in the experiment with HT-29 cells, the inhibition at 10 µM came out at 0%. In addition, the inhibition at 0.22 µM in experiment [3] (@ dose 0.22 µM) was found to be 50%.
Regarding `COc1cc2cc3c(Nc4ccc(Sc5nccn5C)c(Cl)c4)c(C#N)cnc3cc2cc1OCCCN1CCOCC1` [Example 151, 4-[3-Chloro-4-(1-methyl-1H-imidazol-2-ylsulfanyl)phenylamino]-7-methoxy-8-(3-morpholin-4-yl-propoxy)benzo[g]quinoline-3-carbonitrile], the IC50 against Raf-1 (c-Raf) stood at 0.007 µM; in experiment [1], 0.0085 µM; in experiment [2], 0.7 µM; with BxPC3, 0.04 µM; with LnCAP it was 0.012 µM.

The record behind these values is EP1242382B1, “TRICYCLIC PROTEIN KINASE INHIBITORS” (Wyeth, priority 1999, dated 2001).
